Test results from US11028095B2, “Spiro-lactam and bis-spiro-lactam NMDA receptor modulators and uses thereof” (Aptinyx Inc., priority 2016, dated 2021).
Like-named read-outs stand apart in the source and are kept apart here.

Experiments:
Type in all cases: biochemical
[1] = biological target: T1, NMDAR2A expressing HEK cell membranes (Homo sapiens, UniProt Q05586+Q12879); assay: NMDAR agonist assay, [3H]MK-801 binding, NMDAR2A; details: for EC50: [3H]MK-801 binding; for Emax: relative to 1 mM glycine
T1 construct: expressed in transfected cells; host or cells: HEK cells (membrane extract)
T1 sequence (Q12879 23-1464, other chains not shown): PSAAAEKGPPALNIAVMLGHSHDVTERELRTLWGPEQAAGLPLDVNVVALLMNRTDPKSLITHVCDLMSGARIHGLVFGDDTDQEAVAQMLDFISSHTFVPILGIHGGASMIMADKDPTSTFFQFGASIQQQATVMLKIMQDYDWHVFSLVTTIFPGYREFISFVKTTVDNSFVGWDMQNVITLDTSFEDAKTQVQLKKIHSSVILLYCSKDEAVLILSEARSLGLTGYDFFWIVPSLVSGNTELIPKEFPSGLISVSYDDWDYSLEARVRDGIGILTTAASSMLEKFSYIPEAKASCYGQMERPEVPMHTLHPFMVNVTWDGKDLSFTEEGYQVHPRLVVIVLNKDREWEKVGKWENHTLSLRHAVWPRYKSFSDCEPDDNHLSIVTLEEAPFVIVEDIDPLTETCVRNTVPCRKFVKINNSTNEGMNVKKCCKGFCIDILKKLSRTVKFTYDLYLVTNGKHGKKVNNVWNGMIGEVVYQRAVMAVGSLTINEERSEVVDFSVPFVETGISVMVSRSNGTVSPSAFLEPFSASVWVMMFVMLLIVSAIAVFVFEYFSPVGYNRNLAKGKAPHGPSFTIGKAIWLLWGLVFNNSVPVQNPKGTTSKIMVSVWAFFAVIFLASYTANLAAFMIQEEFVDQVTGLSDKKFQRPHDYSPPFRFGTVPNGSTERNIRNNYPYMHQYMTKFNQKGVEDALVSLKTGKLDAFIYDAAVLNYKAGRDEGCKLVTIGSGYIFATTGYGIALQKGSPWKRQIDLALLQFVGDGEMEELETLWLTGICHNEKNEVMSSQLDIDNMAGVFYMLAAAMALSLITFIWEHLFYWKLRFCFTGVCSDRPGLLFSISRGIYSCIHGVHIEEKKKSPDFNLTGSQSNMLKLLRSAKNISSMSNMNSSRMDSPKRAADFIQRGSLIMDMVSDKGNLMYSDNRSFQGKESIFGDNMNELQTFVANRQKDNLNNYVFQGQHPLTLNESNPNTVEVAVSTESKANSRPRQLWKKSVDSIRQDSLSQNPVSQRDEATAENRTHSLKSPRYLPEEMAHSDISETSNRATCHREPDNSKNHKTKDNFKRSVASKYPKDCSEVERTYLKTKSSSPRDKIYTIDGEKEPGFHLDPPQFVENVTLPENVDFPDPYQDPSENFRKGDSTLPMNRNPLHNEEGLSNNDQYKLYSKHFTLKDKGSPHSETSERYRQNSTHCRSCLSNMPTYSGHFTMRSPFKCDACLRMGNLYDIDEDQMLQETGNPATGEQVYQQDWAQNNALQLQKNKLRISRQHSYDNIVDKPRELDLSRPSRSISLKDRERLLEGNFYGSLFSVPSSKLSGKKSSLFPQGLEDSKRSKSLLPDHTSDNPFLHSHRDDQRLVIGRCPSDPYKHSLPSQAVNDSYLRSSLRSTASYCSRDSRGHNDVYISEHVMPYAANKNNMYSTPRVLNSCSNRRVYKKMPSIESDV
Experimental: (§1) (nonequilibrium conditions).
(§2) The baseline value was determined from the best fit curve of the DPM values modeled using the GraphPad program and the log(agonist) vs. response(three parameters) algorithm was then subtracted from all points in the dataset.

[2] = biological target: T2, NMDAR2B expressing HEK cell membranes (Homo sapiens, UniProt Q05586+Q13224); assay: NMDAR agonist assay, [3H]MK-801 binding, NMDAR2B; details: for EC50: [3H]MK-801 binding; for Emax: relative to 1 mM glycine
T2 construct: expressed in transfected cells; host or cells: HEK cells (membrane extract)
Experimental: as §1, §2

[3] = biological target: T3, NMDAR2A expressing HEK cell membranes (Homo sapiens, UniProt Q12879); assay: NMDAR agonist assay, [3H]MK-801 binding, NMDAR2A; details: 50 μM glutamate
T3 construct: expressed in transfected cells; host or cells: HEK cells (membrane extract)
T3 sequence (Q12879 23-1464, other chains not shown): as above
Experimental: as §1, §2

[4] = biological target: T4, NMDAR2B expressing HEK cell membranes (Homo sapiens, UniProt Q13224); assay: NMDAR agonist assay, [3H]MK-801 binding, NMDAR2B; details: 50 μM glutamate; for EC50: [3H]MK-801 binding, read-out: NMDAR2B log EC50 (converted)
T4 construct: expressed in transfected cells; host or cells: HEK cells (membrane extract)
T4 sequence (Q13224 27-1484, other chains not shown): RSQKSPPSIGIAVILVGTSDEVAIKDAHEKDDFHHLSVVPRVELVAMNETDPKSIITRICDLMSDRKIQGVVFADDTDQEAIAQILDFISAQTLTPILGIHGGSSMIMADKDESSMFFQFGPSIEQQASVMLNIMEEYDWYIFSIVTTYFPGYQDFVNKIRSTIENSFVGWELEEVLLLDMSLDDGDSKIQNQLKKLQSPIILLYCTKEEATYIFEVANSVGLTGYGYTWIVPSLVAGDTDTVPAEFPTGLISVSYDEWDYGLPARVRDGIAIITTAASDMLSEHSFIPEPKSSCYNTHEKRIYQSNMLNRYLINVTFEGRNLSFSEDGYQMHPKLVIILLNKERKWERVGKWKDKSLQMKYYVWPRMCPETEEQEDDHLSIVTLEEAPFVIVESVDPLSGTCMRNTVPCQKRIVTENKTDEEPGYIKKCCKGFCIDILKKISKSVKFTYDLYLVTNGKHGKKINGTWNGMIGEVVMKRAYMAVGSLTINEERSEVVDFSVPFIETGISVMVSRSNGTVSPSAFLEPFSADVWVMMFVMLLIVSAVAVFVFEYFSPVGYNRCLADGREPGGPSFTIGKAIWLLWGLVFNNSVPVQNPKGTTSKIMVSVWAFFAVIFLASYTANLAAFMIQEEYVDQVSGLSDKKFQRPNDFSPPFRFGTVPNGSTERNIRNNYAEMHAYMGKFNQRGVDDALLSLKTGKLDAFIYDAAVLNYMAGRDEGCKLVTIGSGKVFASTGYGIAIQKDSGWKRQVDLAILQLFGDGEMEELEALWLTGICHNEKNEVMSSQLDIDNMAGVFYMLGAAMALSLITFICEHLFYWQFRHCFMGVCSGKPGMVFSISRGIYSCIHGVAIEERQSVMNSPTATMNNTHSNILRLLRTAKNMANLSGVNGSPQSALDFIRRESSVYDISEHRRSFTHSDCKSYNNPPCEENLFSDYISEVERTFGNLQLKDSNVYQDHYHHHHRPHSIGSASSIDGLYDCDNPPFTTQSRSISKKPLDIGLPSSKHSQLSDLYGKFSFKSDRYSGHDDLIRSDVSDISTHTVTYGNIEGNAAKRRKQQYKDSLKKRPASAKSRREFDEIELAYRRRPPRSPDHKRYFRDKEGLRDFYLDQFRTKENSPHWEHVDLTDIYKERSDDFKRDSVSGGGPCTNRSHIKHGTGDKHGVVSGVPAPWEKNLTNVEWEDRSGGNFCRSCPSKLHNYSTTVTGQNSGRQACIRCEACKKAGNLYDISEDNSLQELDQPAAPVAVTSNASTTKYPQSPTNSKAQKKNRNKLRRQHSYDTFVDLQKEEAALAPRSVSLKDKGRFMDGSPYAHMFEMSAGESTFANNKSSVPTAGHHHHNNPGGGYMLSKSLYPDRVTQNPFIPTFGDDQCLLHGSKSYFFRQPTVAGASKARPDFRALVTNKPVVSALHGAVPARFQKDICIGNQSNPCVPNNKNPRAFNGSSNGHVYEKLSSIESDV
Experimental: as §1, §2

[5] = 50 μM glutamate, read-out: NMDAR2A: log EC50 (converted)
[6] = 50 μM glutamate, read-out: NMDAR2A: % maximal [3H]MK-801 binding relative to 1 mM glycine
[7] = 50 μM glutamate, read-out: NMDAR2B log EC50 (converted)
[8] = 50 μM glutamate, read-out: NMDAR2B: % maximal [3H]MK-801 binding relative to 1 mM glycine
[9] = NMDAR2A: log EC50, 50 μM glutamate
[10] = read-out: NMDAR2A: % maximal [3H]MK-801 binding relative to 1 mM glycine, 50 μM glutamate
[11] = NMDAR2B: log EC50, 50 μM glutamate
[12] = read-out: NMDAR2B: % maximal [3H]MK-801 binding relative to 1 mM glycine, 50 μM glutamate

Row | SMILES | EC50 [1, 5] [nM] | Emax [1, 6] [%] | EC50 [2, 7] [nM] | Emax [2, 8] [%] | also measured
1 | C[C@@H](O)[C@H](NCC1CCC2(CN(OCc3ccccc3)C2=O)N1C(=O)OC(C)(C)C)C(N)=O (stereo partly drawn) [BI] | > 100 | 0 | > 100 | 0 | –
2 | O=C1NCC12CCC1(CNC1=O)N2Cc1ccc(F)cc1 (single isomer, unassigned) [DI, 5-(4-fluorobenzyl)-2,5,8-triazadispiro[3.1.36.24]undecane-1,7-dione] | – | < 100 | < 1 | < 100 | –
3 | O=C1NCC12CN(Cc1ccc(F)cc1)C1(CNC1=O)C2 (single isomer, unassigned) [DK, 10-(4-fluorobenzyl)-2,8,10-triazadispiro[3.1.3^6.2^4]undecane-1,7-dione] | < 1 | – | < 1 | < 100 | NMDAR2A: % maximal [3H]MK-801 binding relative to 1 mM glycine [3]: + (<100%=+)
4 | C[C@@H](O)[C@H](NC(=O)C1CCC2(CNC2=O)N1C)C(N)=O (single isomer, unassigned) [BC] | – | < 100 | < 1 | > 100 | –
5 | C[C@@H](O)[C@@H](C(N)=O)N(C)CC1CCC2(CN(OCc3ccccc3)C2=O)N1C(=O)OC(C)(C)C (stereo partly drawn) [BU, tert-butyl 6-((((2S,3R)-1-amino-3-hydroxy-1-oxobutan-2-yl)(methyl)amino)methyl)-2-(benzyloxy)-1-oxo-2,5-diazaspiro[3.4]octane-5-carboxylate] | < 1 | < 100 | < 1 | < 100 | –
6 | NC(=O)C1CCC2(CNC2=O)N1 (single isomer, unassigned) [DA, 1-oxo-2,5-diazaspiro[3.4]octane-6-carboxamide] | < 1 | < 100 | < 1 | < 100 | –
7 | CC(O)C(C(N)=O)N(C)CC1CCC2(CN(OCc3ccccc3)C2=O)N1 (single isomer, unassigned) [CT] | < 1 | – | < 1 | < 100 | NMDAR2A: % maximal [3H]MK-801 binding relative to 1 mM glycine [3]: + (<100%=+)
8 | CC(O)C(C(N)=O)N(C)CC1CCC2(CNC2=O)N1 (single isomer, unassigned) [CU] | > 100 | – | – | > 100 | NMDAR2A: % maximal [3H]MK-801 binding relative to 1 mM glycine [3]: − (−=0)
9 | COc1ccc(CN2CC3(CC(N[C@H](C(N)=O)[C@@H](C)O)CN3C(=O)OC(C)(C)C)C2=O)cc1 (stereo partly drawn) [CA, tert-butyl 7-(((2S,3R)-1-amino-3-hydroxy-1-oxobutan-2-yl)amino)-2-(4-methoxybenzyl)-1-oxo-2,5-diazaspiro[3.4]octane-5-carboxylate] | > 100 | 0 | > 100 | 0 | –
10 | NC(=O)C1CCC2(CNC2=O)N1Cc1ccc(F)cc1 (single isomer, unassigned) [DG, 5-(4-fluorobenzyl)-1-oxo-2,5-diazaspiro[3.4]octane-6-carboxamide] | < 1 | < 100 | – | < 100 | –
11 | CNC(=O)C(NCC1CCC2(CN(OCc3ccccc3)C2=O)N1)C(C)O (single isomer, unassigned) [CO] | < 1 | < 100 | < 1 | < 100 | –
12 | CC(C)(C)OC(=O)N1C2(CCC13CNC3=O)CNC2=O (stereo not drawn) [AA-1, tert-butyl 1,7-dioxo-2,5,8-triazadispiro[3.1.36.24]undecane-5-carboxylate] | > 100 | – | > 100 | 0 | NMDAR2A: % maximal [3H]MK-801 binding relative to 1 mM glycine [3]: − (−=0)
13 | CNC(=O)C(C(C)O)N(C)CC1CCC2(CN(OCc3ccccc3)C2=O)N1 (single isomer, unassigned) [CW] | < 1 | < 100 | < 1 | < 100 | –
14 | CNC(=O)[C@@H](NCC1CCC2(CNC2=O)N1C(=O)OC(C)(C)C)[C@@H](C)O (stereo partly drawn) [BP] | > 100 | 0 | > 100 | 0 | –
15 | C[C@@H](O)[C@H](NCC1CCC2(CNC2=O)N1C(=O)OC(C)(C)C)C(N)=O (stereo partly drawn) [BK] | > 100 | 0 | – | < 100 | –
16 | CN1C2(CCC13CNC3=O)CNC2=O (stereo not drawn) [AB-3, 5-methyl-2,5,8-triazadispiro[3.1.36.24]undecane-1,7-dione] | – | – | – | – | EC50 [1, 9]: > 100 nM; Emax [1, 10]: 0%; EC50 [2, 11]: > 100 nM; Emax [2, 12]: 0%
17 | CC(O)C(NCC1CCC2(CNC2=O)N1)C(N)=O (single isomer, unassigned) [CM] | < 1 | < 100 | < 1 | < 100 | –
18 | C[C@@H](O)[C@H](NCC1CCC2(CNC2=O)N1C(=O)OC(C)(C)C)C(N)=O (stereo partly drawn) [BL] | – | – | < 1 | – | –

Row | SMILES | EC50 [1, 5] [nM] | Emax [1, 6] [%] | EC50 [2, 7] [nM] | Emax [2, 8] [%] | also measured
19 | C[C@@H](O)[C@H](NC(=O)C1CCC2(CNC2=O)N1Cc1ccccc1)C(N)=O (single isomer, unassigned) [AL-1] | < 1 | < 100 | > 100 | – | NMDAR2B: % maximal [3H]MK-801 binding relative to 1 mM glycine [4]: − (−=0)
20 | COc1ccc(CN2CC3(CC(N[C@H](C(N)=O)[C@@H](C)O)CN3)C2=O)cc1 (stereo partly drawn) [CD] | < 1 | – | – | – | –
21 | O=C1NCC12CCC1(CNC1=O)N2Cc1ccc(F)cc1 (single isomer, unassigned) [DJ, 5-(4-fluorobenzyl)-2,5,8-triazadispiro[3.1.36.24]undecane-1,7-dione] | < 1 | – | – | – | EC50 [4]: < 1 nM
22 | CC(C)CN1C(C(N)=O)CCC12CNC2=O (single isomer, unassigned) [DC, 5-isobutyl-1-oxo-2,5-diazaspiro[3.4]octane-6-carboxamide] | < 1 | < 100 | < 1 | > 100 | –
23 | CC(C)CN1C2(CCC13CNC3=O)CNC2=O (stereo not drawn) [AE, 5-isobutyl-2,5,8-triazadispiro[3.1.36.24]undecane-1,7-dione] | – | – | – | – | EC50 [1, 9]: > 100 nM; Emax [1, 10]: 0%; EC50 [2, 11]: > 100 nM; Emax [2, 12]: 0%
24 | COc1ccc(CN2CC3(C[C@H](C(N)=O)CN3CC(C)C)C2=O)cc1 (stereo partly drawn) [CJ] | – | < 100 | – | < 100 | –
25 | COc1ccc(CN2C[C@@]3(C[C@H](C(N)=O)CN3CC(C)C)C2=O)cc1 [CI, (4S,7S)-5-isobutyl-2-(4-methoxybenzyl)-1-oxo-2,5-diazaspiro[3.4]octane-7-carboxamide] | – | < 100 | < 1 | < 100 | –
26 | COc1ccc(CN2CC3(CC(N[C@H](C(=O)O)[C@@H](C)O)CN3C(=O)OC(C)(C)C)C2=O)cc1 (stereo partly drawn) [CF, (5-(tert-butoxycarbonyl)-2-(4-methoxybenzyl)-1-oxo-2,5-diazaspiro[3.4]octan-7-yl)-L-threonine] | > 100 | 0 | < 1 | < 100 | –
27 | C[C@@H](O)[C@@H](C(=O)N(C)C)N(C)CC1CCC2(CN(OCc3ccccc3)C2=O)N1C(=O)OC(C)(C)C (stereo partly drawn) [BW] | < 1 | < 100 | < 1 | > 100 | –
28 | CNC(=O)[C@@H](NCC1CCC2(CN(OCc3ccccc3)C2=O)N1C(=O)OC(C)(C)C)[C@@H](C)O (single isomer, unassigned) [BM] | > 100 | 0 | > 100 | 0 | –
29 | NC(=O)C1CCC2(CN(OCc3ccccc3)C2=O)N1 (single isomer, unassigned) [CY, 2-(benzyloxy)-1-oxo-2,5-diazaspiro[3.4]octane-6-carboxamide] | < 1 | < 100 | < 1 | < 100 | –
30 | NC(=O)C1CCC2(CNC2=O)N1 (single isomer, unassigned) [DB, 1-oxo-2,5-diazaspiro[3.4]octane-6-carboxamide] | – | – | – | – | EC50 [4]: < 1 nM
31 | CC(C)C(=O)N1C[C@@H](C(N)=O)C[C@]12CNC2=O [AT, (4R,7S)-5-isobutyryl-1-oxo-2,5-diazaspiro[3.4]octane-7-carboxamide] | – | < 100 | > 100 | 0 | –
32 | COc1ccc(CN2CC3(CC(N[C@H](C(=O)O)[C@@H](C)O)CN3C(=O)OC(C)(C)C)C2=O)cc1 (single isomer, unassigned) [CE, (5-(tert-butoxycarbonyl)-2-(4-methoxybenzyl)-1-oxo-2,5-diazaspiro[3.4]octan-7-yl)-L-threonine] | > 100 | 0 | < 1 | > 100 | –
33 | CC(C)C(=O)N1C2(CCC13CNC3=O)CNC2=O (single isomer, unassigned) [AG, 5-isobutyryl-2,5,8-triazadispiro[3.1.36.24]undecane-1,7-dione] | < 1 | < 100 | > 100 | – | NMDAR2B: % maximal [3H]MK-801 binding relative to 1 mM glycine [4]: − (−=0)
34 | COc1ccc(CN2CC3(CC(N[C@H](C(N)=O)[C@@H](C)O)CN3)C2=O)cc1 (stereo partly drawn) [CC] | – | < 100 | > 100 | 0 | –
35 | NC(=O)C1CCC2(CNC2=O)N1Cc1ccccc1 (single isomer, unassigned) [DE, 5-benzyl-1-oxo-2,5-diazaspiro[3.4]octane-6-carboxamide] | < 1 | < 100 | < 1 | < 100 | –
36 | NC(=O)C1CCC2(CN(OCc3ccccc3)C2=O)N1 (single isomer, unassigned) [CZ, 2-(benzyloxy)-1-oxo-2,5-diazaspiro[3.4]octane-6-carboxamide] | – | – | – | – | EC50 ([3]; [3H]MK-801 binding, read-out: NMDAR2A: log EC50 (converted)): < 1 nM
